The subject of this assay is HCV replication. The assay is described as follows: HCV replicon assay (luciferase) in ET (Huh-lucubineo-ET) cell line. The class given is cell-based. The conditions noted are these: Hepatitis C virus, tested at 5 μM; ET replicon cells; luciferase activity measured 48-72 hours later; relative to no compound control. In a few lines:
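Huh-lucubineo-ET cells stably carry a subgenomic replicon with a firefly luciferase–ubiquitin–neo fusion and adaptive NS3-5B mutations; they were seeded 24 h before compound addition (0.1 nM–50 μM, 0.5% DMSO). Luciferase was read 48–72 h later as % inhibition versus no-compound control, with parallel WST-1 cytotoxicity. EC50 and TC50 came from 10-point 2-fold dilutions fitted to a Hill equation.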
The term inhibition denotes the share of the control response that was lost under treatment. Lower therefore signals a weak effect. The compound `O=C(NC1CC1)c1ccc(-c2csc(NC(=O)[C@@H]3CSC(c4cccc(F)c4)N3C(=O)OCc3ccccc3)n2)cc1` (mixture of isomers) [Compound 7048, (R)-4-[4-(4-Cyclopropylcarbamoyl-phenyl)-thiazol-2-ylcarbamoyl]-2-(3-fluoro-phenyl)-thiazolidine-3-carboxylic acid benzyl ester] registered an inhibition at 5 µM of 99.3%.

For `O=C(NC1CC1)c1ccc(-c2csc(NC(=O)[C@@H]3CSC(C4CCNCC4)N3C(=O)OCc3ccccc3)n2)cc1` (mixture of isomers) [Compound 7042, (R)-4-[4-(4-Cyclopropylcarbamoyl-phenyl)-thiazol-2-ylcarbamoyl]-2-piperidin-4-yl-thiazolidine-3-carboxylic acid benzyl ester], the inhibition at 5 µM stood at 100%.

The compound `O=C(Nc1nc(-c2ccccc2)cs1)[C@@H]1Cc2ccccc2N1C(=O)OCc1ccccc1` [Compound 7023, (S)-2-(4-Phenyl-thiazol-2-ylcarbamoyl)-2,3-dihydro-indole-1-carboxylic acid benzyl ester] displayed an inhibition at 5 µM of 78.5%.

For `O=C(NC1CC1)c1ccc(-c2csc(NC(=O)[C@@H]3CSC(c4ccnc(Cl)c4)N3C(=O)OCc3ccccc3)n2)cc1` (mixture of isomers) [Compound 7029, (R)-2-(2-Chloro-pyridin-4-yl)-4-[4-(4-cyclopropylcarbamoyl-phenyl)-thiazol-2-ylcarbamoyl]-thiazolidine-3-carboxylic acid benzyl ester], the inhibition at 5 µM amounted to 99.8%.

As for `CC(C)(C)OC(=O)N1[C@@H](c2ccccc2)CC[C@H]1C(=O)Nc1nc(-c2ccc(C(=O)NC3CC3)cc2)cs1` [Compound 7005, (2S,5R)-2-[4-(4-Cyclopropylcarbamoyl-phenyl)-thiazol-2-ylcarbamoyl]-5-phenyl-pyrrolidine-1-carboxylic acid tert-butyl ester], testing at 5 µM gave an inhibition of 97.8%.

`O=C(Cc1cccc(NC(=O)[C@@H]2CSC(c3ccncc3)N2C(=O)OCc2ccccc2)c1)Nc1ccccc1` (some centres unmarked) [Compound 7072, 4-(3-Phenylcarbamoylmethyl-phenylcarbamoyl)-2-pyridin-4-yl-thiazolidine-3-carboxylic acid benzyl ester] displayed an inhibition at 5 µM of 80.8%.

In turn, `CC(C)(C)OC(=O)N1CCCC(C2SC[C@@H](C(=O)Nc3nc(-c4ccc(C(=O)NC5CC5)cc4)cs3)N2C(=O)OCc2ccccc2)C1` (mixture of isomers) [Compound 7098, 3-{3-Benzyloxycarbonyl-4-[4-(4-cyclopropylcarbamoyl-phenyl)-thiazol-2-ylcarbamoyl]-thiazolidin-2-yl}-piperidine-1-carboxylic acid tert-butyl ester] gave an inhibition at 5 µM of 99.9%.

`O=C(NC1CC1)c1ccc(-c2csc(NC(=O)[C@@H]3CSC(C4CCOCC4)N3C(=O)[C@H]3CCCO3)n2)cc1` (some centres unmarked) [Compound 7074, 3-(Tetrahydro-furan-2-carbonyl)-2-(tetrahydro-pyran-4-yl)-thiazolidine-4-carboxylic acid [4-(4-cyclopropylcarbamoyl-phenyl)-thiazol-2-yl]-amide] came in with an inhibition at 5 µM of 99%.

As for `CC(C)(C)OC(=O)N1C(c2cccnc2)SC[C@H]1C(=O)Nc1nc(-c2ccc(C(=O)NC3CC3)cc2)cs1` (single isomer, unassigned) [Compound 7032, 4-[4-(4-Cyclopropylcarbamoyl-phenyl)-thiazol-2-ylcarbamoyl]-2-pyridin-3-yl-thiazolidine-3-carboxylic acid tert-butyl ester], the inhibition at 5 µM stood at 99.2%.

In turn, `O=C(NC1CC1)c1ccc(-c2csc(NC(=O)[C@@H]3CSC4(CCCCC4)N3C(=O)OCc3ccccc3)n2)cc1` [Compound 7093, 3-[4-(4-Cyclopropylcarbamoyl-phenyl)-thiazol-2-ylcarbamoyl]-1-thia-4-aza-spiro[4.5]decane-4-carboxylic acid benzyl ester] returned an inhibition at 5 µM of 100%.

Take `O=C(NC1CC1)c1ccc(-c2csc(NC(=O)[C@@H]3CSC(c4cccc(CN5CCOCC5)c4)N3C(=O)OCc3ccccc3)n2)cc1` (mixture of isomers) [Compound 7080, 4-[4-(4-Cyclopropylcarbamoyl-phenyl)-thiazol-2-ylcarbamoyl]-2-(3-morpholin-4-ylmethyl-phenyl)-thiazolidine-3-carboxylic acid benzyl ester]: the inhibition at 5 µM amounted to 100%.

Compound `Cn1ccnc1C(=O)N1C(C2CCOCC2)SC[C@H]1C(=O)Nc1nc(-c2ccc(C(=O)NC3CC3)cc2)cs1` (some centres unmarked) [Compound 7092, 3-(1-Methyl-1H-imidazole-2-carbonyl)-2-(tetrahydro-pyran-4-yl)-thiazolidine-4-carboxylic acid [4-(4-cyclopropylcarbamoyl-phenyl)-thiazol-2-yl]-amide] registered an inhibition at 5 µM of 89.4%.

`O=C(Nc1nc(-c2ccccc2)cs1)[C@@H]1CS[C@H](c2cccnc2)N1C(=O)OCc1ccccc1` [Compound 7058, (2R,4R)-4-(4-Phenyl-thiazol-2-ylcarbamoyl)-2-pyridin-3-yl-thiazolidine-3-carboxylic acid benzyl ester] yielded an inhibition at 5 µM of 99.9%.

As to `O=C(Nc1cccnc1)c1ccc(-c2csc(NC(=O)[C@@H]3CSC4(CCOCC4)N3C(=O)OCc3ccccc3)n2)cc1` [Compound 7139, 3-{4-[4-(Pyridin-3-ylcarbamoyl)-phenyl]-thiazol-2-ylcarbamoyl}-8-oxa-1-thia-4-aza-spiro-[4.5]decane-4-carboxylic acid benzyl ester], the inhibition at 5 µM came out at 100%.

Take `NC(=O)c1cccc(NC(=O)[C@@H]2CSC(c3ccncc3)N2C(=O)OCc2ccccc2)c1` (some centres unmarked) [Compound 7127, 4-(3-carbamoyl-phenylcarbamoyl)-2-pyridin-4-yl-thiazolidine-3-carboxylic acid benzyl ester]: the inhibition at 5 µM was 25.7%.

`O=C(NC1CC1)c1ccc(NC(=O)[C@@H]2CSC(c3ccncc3)N2C(=O)OCc2ccccc2)cc1` (stereo in doubt) [Compound 7066, 4-(4-Cyclopropylcarbamoyl-phenylcarbamoyl)-2-pyridin-4-yl-thiazolidine-3-carboxylic acid benzyl ester] gave an inhibition at 5 µM of 6.9%.

As to `O=C(NC1CC1)c1ccc(-c2csc(NC(=O)[C@@H]3CSC(C4CCOCC4)N3C(=O)CC3CC3)n2)cc1` (some centres unmarked) [Compound 7104, 3-(2-Cyclopropyl-acetyl)-2-(tetrahydropyran-4-yl)-thiazolidine-4-carboxylic acid [4-(4-cyclopropylcarbamoyl-phenyl)-thiazol-2-yl]-amide], testing at 5 µM gave an inhibition of 100%.

`O=C(NCc1ccc(NC(=O)[C@@H]2CSC(c3ccncc3)N2C(=O)OCc2ccccc2)cc1)c1ccccc1` (stereo in doubt) [Compound 7077, 4-[4-(Benzoylamino-methyl)-phenylcarbamoyl]-2-pyridin-4-yl-thiazolidine-3-carboxylic acid benzyl ester] displayed an inhibition at 5 µM of 2.1%.

The compound `COC(=O)CCC1SC[C@@H](C(=O)Nc2nc(-c3ccc(C(=O)NC4CC4)cc3)cs2)N1C(=O)OCc1ccccc1` (some centres unmarked) [Compound 7121, 4-[4-(4-Cyclopropylcarbamoyl-phenyl)-thiazol-2-ylcarbamoyl]-2-(2-methoxycarbonyl-ethyl)-thiazolidine-3-carboxylic acid benzyl ester] returned an inhibition at 5 µM of 99.8%.

`COC(=O)CCCCC1SC[C@@H](C(=O)Nc2nc(-c3ccc(C(=O)NC4CC4)cc3)cs2)N1C(=O)OCc1ccccc1` (some centres unmarked) [Compound 7108, 4-[4-(4-Cyclopropylcarbamoyl-phenyl)-thiazol-2-ylcarbamoyl]-2-(4-methoxycarbonyl-butyl)-thiazolidine-3-carboxylic acid benzyl ester] showed an inhibition at 5 µM of 99.9%.

For the origin of these results see patent US20080181866A1, “Amido Anti-viral Compounds” (Genelabs Technologies, Inc., priority 2006, published 2008).
